# From article PMC6985722 (Antimicrobial Agents and Chemotherapy, 2020)
# Where “and” joins values, the source holds several entries; their conditions need not be identical. Identical values can stand only once.
# Tested on: RSV-A Memphis-37b
# Test: RSV human challenge study: viral load in nasal wash by RT-qPCR
# Type: in vivo
# Conditions: for AUC of viral load (RT-qPCR), fixed time period of 6.5 days, mean (SE) / AUC of viral load (RT-qPCR), fixed time period of 6.5 days, reduction in mean vs placebo: fixed 6.5 days
# Experimental: Subjects were screened outside the RSV season for eligibility, including measurement of RSV-A Memphis-37b-specific neutralizing antibody titer, ≤90 days before virus challenge. Eligible subjects were admitted to the quarantine unit on day −2 or day −1 and were inoculated intranasally on day 0 with the challenge virus, RSV-A Memphis-37b (4 log10 PFU/ml, given as one 0.4-ml installation per naris), as previously described ([26]). Nasal wash sampling every 12 h for confirmation of RSV infection by qualitative integrated cycler PCR ([12], [19]) began on the morning of day 2. Treatment began 12 h (±1 h) after collection of a nasal wash sample confirming RSV infection or on the evening of day 5 if RSV infection remained unconfirmed by the morning of day 5.
# The study comprised two consecutive cohorts. […] Subjects were discharged on day 12 if nasopharyngeal swab samples tested negative by RSV rapid antigen assay (QuickVue RSV test; Quidel, San Diego, CA, USA). If such tests were positive or if a subject remained symptomatic, quarantine was extended to allow further observation. All subjects were evaluated on day 28 (±3 days).
# Twice-daily collection of nasal wash samples allowed measurement of viral load via RT-qPCR and quantitative culture. RT-qPCR results were reported as PFUe/ml when the standard curve included in each assay contained a known infectious amount (PFU) of RSV, as described previously ([30]). Subjects reported the occurrence and severity of symptoms three times daily using a 10-item subject symptom diary card as previously reported ([12]) (see Supplemental Methods). Throughout the quarantine period, used tissues were collected and weighed daily, and total nasal mucus weight was recorded. PK assessments were based on venous blood samples. Safety assessments included measurement of vital signs, standard 12-lead ECG recordings, spirometry, a complete physical examination, and a respiratory-directed physical examination. AEs were monitored daily, coded according to the Medical Dictionary for Regulatory Activities Version 20.0, and graded according to the National Cancer Institute Common Terminology Criteria for Adverse Events Version 4.0 (see Supplemental Methods for further details).
# The primary efficacy endpoint was AUC for RSV viral load, as measured by RT-qPCR, in nasal wash samples taken twice daily from just before the first dose until discharge (day 12). Viral load data were provided as log10 PFUe/ml; AUC (log10 PFUe/ml · h) was calculated using the trapezoid rule. Secondary efficacy endpoints related to viral load were AUC of RSV viral load, as assessed by quantitative culture, and the following measures, which were each assessed using both RT-qPCR and quantitative culture: peak viral load, time to peak viral load, and time to <1 log10 (for RT-qPCR) or undetectable (for quantitative culture) viral load (considered to occur at the first confirmed undetectable assessment after which no further virus was detected). Secondary efficacy endpoints related to clinical symptoms included AUC total symptom score; peak total symptom score; time to peak total symptom score; and the total weight of nasal mucus produced. Other secondary outcomes were safety, PK, and sequence detection of viral variants (see Supplemental Methods).
# The primary efficacy analysis population (the ITT-I analysis set) comprised all randomized subjects who received challenge virus and at least one dose of study drug and met the criterion for laboratory-confirmed RSV infection (presence of detectable RSV). Sensitivity analyses were based on a subset of the ITT-I population who had first detectable RSV infection prior to study drug administration (the ITT-A analysis set) and a fixed time period of 6.5 days (comprising data for all subjects for 6.5 days of evaluation after the first dose, regardless of the staggered commencement of dosing). […]
# [1] = 200 mg, ITT-A, fixed time period of 6.5 days
# [2] = 350 mg, ITT-A, fixed time period of 6.5 days
smiles,measurement,setting,value
NCc1ccc2c(c1)nc(CN1C(=O)C3(CC3)c3ccc(F)cc31)n2CCCC(F)(F)F [RV521],"AUC of viral load (RT-qPCR), mean (SE)","200 mg, ITT-A",236.81 (37.63) hours x log 10 PFUe/mL
same,"AUC of viral load (RT-qPCR), reduction in mean vs placebo","200 mg, ITT-A",59.74%
same,"Peak viral load (RT-qPCR), mean (SE)","200 mg, ITT-A",3.63 (0.26) log10 PFUe/mL
same,"Time to <1 log10 viral load (RT-qPCR), median (Q1, Q3)","200 mg, ITT-A","3.0 (3.0, 6.0) days"
same,"Time to peak viral load (RT-qPCR), mean (SE)","200 mg, ITT-A",0.94 (0.11) days
same,"AUC of viral load (RT-qPCR), mean (SE)",[1],234.29 (37.07) log10 PFUe/mL x hours
same,"AUC of viral load (RT-qPCR), reduction in mean vs placebo",[1],–276.21 log10 PFUe/mL x hours
same,"AUC of viral load (RT-qPCR), mean (SE)","200 mg, ITT-I",224.35 log10 PFUe/ml · h and 224.35 (37.60) log10 PFUe/ml · h
same,"AUC of viral load (RT-qPCR), reduction in mean vs that of placebo","200 mg, ITT-I",55.25%
same,"AUC of viral load (RT-qPCR, unlogged), mean (SE)","200 mg, ITT-I","1,087,294.53 (604,070.11) PFUe/ml · h"
same,"AUC of viral load (RT-qPCR, unlogged), reduction in mean vs that of placebo","200 mg, ITT-I",99.10%
same,"Peak viral load (RT-qPCR), mean (SE)","200 mg, ITT-I",3.47 log10 PFUe/ml and 3.47 (0.30) log10 PFUe/ml
same,"Time to <1 log10 viral load (RT-qPCR), median (Q1, Q3)","200 mg, ITT-I","3.0 days and 3.0 (3.0, 6.0) (n = 17) days"
same,"Time to peak viral load (RT-qPCR), mean (SE)","200 mg, ITT-I",0.95 days and 0.95 (0.11) days
same,"Mean viral load at time of peak viral load in placebo arm (day 3; RT-qPCR), mean (SE)","200 mg, ITT-I",1.35 (0.36) log10 PFUe/ml
same,"AUC of viral load (RT-qPCR), fixed time period of 6.5 days, mean (SE)","200 mg, ITT-I",221.98 (37.05) log10 PFUe/ml · h
same,"AUC of viral load (RT-qPCR), fixed time period of 6.5 days, reduction in mean vs placebo","200 mg, ITT-I",49.08%
same,"AUC of viral load (RT-qPCR), mean (SE)","350 mg, ITT-A",210.61 (29.76) hours x log 10 PFUe/mL
same,"AUC of viral load (RT-qPCR), reduction in mean vs placebo","350 mg, ITT-A",64.19%
same,"Peak viral load (RT-qPCR), mean (SE)","350 mg, ITT-A",3.58 (0.40) log10 PFUe/mL
same,"Time to <1 log10 viral load (RT-qPCR), median (Q1, Q3)","350 mg, ITT-A","3.5 (3.0, 4.0) days"
same,"Time to peak viral load (RT-qPCR), mean (SE)","350 mg, ITT-A",1.65 (0.39) days
same,"AUC of viral load (RT-qPCR), mean (SE)",[2],207.56 (28.74) log10 PFUe/mL x hours
same,"AUC of viral load (RT-qPCR), reduction in mean vs placebo",[2],–302.95 log10 PFUe/mL x hours
same,"AUC of viral load (RT-qPCR), mean (SE)","350 mg, ITT-I",185.26 log10 PFUe/ml · h and 185.26 (31.17) log10 PFUe/ml · h
same,"AUC of viral load (RT-qPCR), reduction in mean vs that of placebo","350 mg, ITT-I",63.05%
same,"AUC of viral load (RT-qPCR, unlogged), mean (SE)","350 mg, ITT-I","1,356,521.31 (1,117,131.13) PFUe/ml · h"
same,"AUC of viral load (RT-qPCR, unlogged), reduction in mean vs that of placebo","350 mg, ITT-I",98.87%
same,"Peak viral load (RT-qPCR), mean (SE)","350 mg, ITT-I",3.17 log10 PFUe/ml and 3.17 (0.45) log10 PFUe/ml
same,"Time to <1 log10 viral load (RT-qPCR), median (Q1, Q3)","350 mg, ITT-I","3.5 days and 3.5 (3.0, 4.0) (n = 13) days"
same,"Time to peak viral load (RT-qPCR), mean (SE)","350 mg, ITT-I",1.63 days and 1.63 (0.34) days
same,"Mean viral load at time of peak viral load in placebo arm (day 3; RT-qPCR), mean (SE)","350 mg, ITT-I",0.80 (1.07) log10 PFUe/ml
same,"AUC of viral load (RT-qPCR), fixed time period of 6.5 days, mean (SE)","350 mg, ITT-I",182.59 (30.29) log10 PFUe/ml · h
same,"AUC of viral load (RT-qPCR), fixed time period of 6.5 days, reduction in mean vs placebo","350 mg, ITT-I",58.12%
